This note sets out measurements from patent US20240041830A1, “CIRCULATING BIOMARKERS OF RESPONSE TO PD-1/PD-L1 BLOCKADE AND GSK-3 INHIBITION” (Brown University, priority 2022, published 2024).

The IC50 is the concentration needed to halve the response being measured. A lower IC50 goes with higher potency.

Experiment [1] has as its system 93T449 liposarcoma. The experiment is described as follows: Luminex cytokine profiling. In kind it is cell-based. The note with it: 0.5 μM, twenty-four hours. Here is the method:
(§1) Human cytokine profiling. Human cell line culture supernatants were analyzed using an R&D systems Human Premixed Multi-Analyte Kit (R&D Systems, Inc., Minneapolis, MN, USA) and a Luminex 200 (RRID: SCR_018025) Instrument (LX200-XPON-RUO, Luminex Corporation, Austin, TX, USA) according to the manufacturer's instructions. Sample levels of TNF-α, 4-1BB/TNFRSF9/CD137, IL-8/CXCL8, Ferritin, IFN-β, IL-10, CCL2/JE/MCP-1, VEGF, CXCL13/BLC/BCA-1, IFN-γ, CCL20/MIP-3 α, CCL3/MIP-1 α, CCL22/MDC, CCL4/MIP-1 β, Fas Ligand/TNFSF6, IL-17/1L-17A, IL-2, BAFF/BLyS/TNFSF13B, GM-CSF, CXCLS/ENA-78, TRANCE/TNFSF11/RANK L, CXCL9/MIG, G-CSF, IFN-γ R1/CD119, VEGFR3/Flt-4, C-Reactive Protein/CRP, CXCL11/I-TAC, IL-21, CXCL14/BRAK, IL-6, Fas/TNFRSF6/CD95, TRAIL R3/TNFRSF10C, IL-4, CCL5/RANTES, PD-L1/137-H1, CCL7/MCP-3/MARC, Chitinase 3-like 1, CXCL10/IP-10/CRG-2, IL-1 μ/IL-1F2, IL-7, Prolactin, CCL8/MCP-2, TRAIL R2/TNFRSF10B, M-CSF, IL-15, Granzyme B, IFN-α, TREM-1, IL-12/1L-23 p40, TRAIL/TNFSF10, CCL11/Eotaxin, and 1L-18/1L-1F4. Quantitative analysis with 6 standards and a minimum of 50 counts per bead region was used with the Luminex to generate analyte values reported as picograms/milliliter (pg/mL). Sample concentrations less than the lower limit of detection for each particular analyte were recoded as the lower limit value divided by 10. Sample concentrations above the upper limit of detection for a particular analyte were recoded as the upper limit of detection.
(§2) Saos-2 osteosarcoma and 93T449 liposarcoma cell lines were pretreated at IC50 with elraglusib. The cells were harvested for Western blot analysis after 48 hours of treatment. Both cancer cell lines as well as TALL-104 T-cells and NK-92 NK cells were treated with 0.5 μM elraglusib for twenty-four hours and harvested for Luminex cytokine profiling.

Experiment [2] concerns Saos-2 osteosarcoma. The experiment is described as follows: Luminex cytokine profiling. In kind it is cell-based. The settings on record: 0.5 μM, twenty-four hours. How it is done: as §1, §2
Experiment [3] deals with TALL-104. The experiment is described as follows: Western blot analysis. In kind it is cell-based, human. The settings on record: as treatment duration increased (0-72 hours). How it is done:
Western blot analysis. Cells were plated in a 6-well plate and incubated overnight before the spent media was replaced with drugged media. Drug treatment lasted for indicated durations. Protein was extracted using radioimmunoprecipitation (RIPA) assay buffer (Cat #R0278, Sigma-Aldrich, St. Louis, MO, USA) containing cOmplete™, Mini, EDTA-free Protease Inhibitor Cocktail (Cat #4693159001, Roche, Basel, Switzerland) from sub-confluent cells. Denaturing sample buffer was added, samples were boiled at 95° C. for ten minutes, and an equal amount of protein lysate was electrophoresed through NuPAGE™ 4 to 12%, bis-Tris, 1.5 mm, Mini Protein Gels (Invitrogen, Waltham, MA, USA) then transferred to PVDF membranes. The PVDF membrane was blocked with 5% non-fat milk (Sigma-Aldrich, St. Louis, MO, USA) in 1× TTBS. Primary antibodies were incubated with the transferred PVDF membrane in blocking buffer at 4° C. overnight. […] The signal was detected using Pierce™ ECL Western Blotting Substrate (Cat #32106, Thermo Scientific, Waltham, MA, USA) and a Syngene Imaging System (RRID: SCR_015770).
Elraglusib enhances immune cell effector function. the inventors next analyzed immune cell lines (TALL-104, NK-92) using western blot analysis.
In general terms: In western blotting, separated proteins are transferred to a membrane and probed.

In experiment [4] the test system is KM12C. The experiment is described as follows: CellTiter Glo cell viability. The experiment is classed as cell-based. The note with it: Homo sapiens, treatment up to 50 μM for seventy-two hours. Here is the method:
(§3) Measurement of cell viability. Cells were seeded at a density of 3×10^3 cells per well in a 96-well plate (Greiner Bio-One, Monroe, NC, USA). Cell viability was assessed using the CellTiter Glo assay (Promega, Madison, WI, USA). Cells were mixed with 25 μL of CellTiter-Glo reagents in 100 μL of culture volume, and bioluminescence imaging was measured using the Xenogen IVIS imager (Caliper Life Sciences, Waltham, MA). The percent of cell viability was determined by normalizing the luminescence signal to control wells. Dose-response curves were generated, and the half-maximal inhibitory concentration (IC50) was calculated using Graph-Pad Prism (RRID: SCR_002798) version 9.2.0. For IC50 generation, concentrations were log-transformed, and data were then normalized to control, and a log (inhibitor) versus response (three parameters) test was used. A panel of human colorectal cell lines was chosen to provide a varied mutational background (TP53, KRAS, BRAF, TRK, APC, PIK3CA). Cells were treated with elraglusib at doses up to 50 μM for seventy-two hours to determine IC10, IC30, IC50, and IC70. Cytokine, chemokine, and growth factor levels were analyzed in the tumor cell culture supernatants after treatment at IC10, IC30, IC50, and IC70 for forty-eight hours using a Luminex 200 multiplexing instrument. Co-culture experiments were conducted with GFP+ SW480 colorectal cancer cells and either NK-92 natural killer cells or TALL-104 T cells at various effector/target ratios in a 48-well plate, in the presence or absence of elraglusib. The inventors performed cell titer glo analysis to determine IC doses after treatment up to 50 μM for seventy-two hours. See TABLE below of IC50 values for the three cell lines.

In experiment [5] the test system is HCT116. The experiment is described as follows: CellTiter Glo cell viability. The experiment is classed as cell-based. The settings on record: Homo sapiens, HCT-116, treatment up to 50 μM for seventy-two hours. How it is done: as §3
In experiment [6] the test system is HT29. As to the kind of experiment: CellTiter Glo cell viability. The note with it: Homo sapiens, HT-29, treatment up to 50 μM for seventy-two hours. In kind it is cell-based. How it is done: as §3
A general note: Cellular ATP, detected with luciferase, serves as a proxy for viable cell number.

Experiment [7] relates to HT-29 GFP+ cells. The experiment is described as follows: single-color GFP+ immune cell co-culture.
Procedure: Single-color immune cell co-culture experiments. A total of 5000 HT-29 GFP+ or HCT 116 GFP+ cells were plated per well in a clear-bottom, black-walled 96-well tissue culture plate and were allowed to adhere overnight. Cells were subsequently treated with DMSO, 5 μM elraglusib, or 5000 TALL-104 or NK-92 cells (for an effector-to-tumor ratio of 1:1) for forty-eight hours. Nine images were taken per well at 10× magnification using a Molecular Devices ImageXpress® Confocal HT.ai High-Content Imaging System and quantified for the number of GFP+ objects using the MetaXpress (RRID: SCR_016654) software (Molecular Devices, San Jose, CA, USA). 40× images were also taken at twenty-four hours for representative images of cellular morphology changes.
To determine if pyroptosis-mediated immune cell activity played a role in the co-culture results, the inventors examined higher-power co-culture images for evidence of pyroptosis.

Regarding `Cn1cc(C2=C(c3coc4ccc(F)cc34)C(=O)NC2=O)c2cc3c(cc21)OCO3` [elraglusib], the TGF-α result in experiment [1] and in experiment [2] was “increase” each time. In experiment [2] (only Saos-2), the IL-6 result was “increase”. Moreover, the Bcl-2 expression entry in experiment [3] is given as “did not notice significant changes”. For the same compound, the NF-κB expression result in experiment [3] was “did not notice significant changes”. The IC50 turned out to be 200 nM in experiment [4], 370 nM in experiment [5] and 410 nM in experiment [6]. The “tumor cell death, significance” value in experiment [7] (NK-92 + elraglusib vs elraglusib only) is recorded as “did not show statistical significance”. For the same compound, the tumor cell death entry in experiment [7] (NK-92 + elraglusib vs immune cells only and DMSO only) is recorded as “increased tumor cell death”; in experiment [7] (TALL-104 + 5 μM elraglusib vs drug-only or T cell-only), “increased tumor cell death”. Also, in experiment [7] (co-culture with TALL-104, 5 μM elraglusib), the pyroptotic events result is “significant increase”.
